In article PMC8963254, “Effects of Lysine N-ζ-Methylation in Ultrashort Tetrabasic Lipopeptides (UTBLPs) on the Potentiation of Rifampicin, Novobiocin, and Niclosamide in Gram-Negative Bacteria” (Antibiotics, 2022):
Where two headings read alike, the source gives them in different places.

Experiments:
P. aeruginosa PAO1 [1] = assay type: cell-based, Pseudomonas aeruginosa; settings: PAO1, 18 h
Method: (§1) The in vitro antibacterial activity of the UTBLPs was assessed against wild-type and clinically isolated bacterial strains. To obtain the MIC of the compounds, the microbroth dilution susceptibility assay was performed according to the Clinical and Laboratory Standards Institute (CLSI, Wayne, PA, USA) guidelines and as previously described. Briefly, the compounds at varying concentrations were incubated with bacterial inoculum (5 × 10^5 CFU/mL final concentration) at 37 °C for 18 h. Growth in the form of turbidity was confirmed using an EMax Plus microplate reader (Molecular Devices, San Jose, CA, USA) at 590 nm.

E. faecalis ATCC 29212 = assay type: cell-based, Enterococcus faecalis; settings: ATCC 29212, 18 h
Method: as §1

E. faecium ATCC 27270 = assay type: cell-based, Enterococcus faecium; settings: ATCC 27270, 18 h
Method: as §1

[2] = test system: P. aeruginosa PA259-96196; assay: microbe, parasite or virus in culture; assay type: cell-based, Pseudomonas aeruginosa; settings: PA259-96196, 18 h
Summary of the method: (§2)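 Turbidity at 590 nm defined growth, from which the MIC was taken. Cultures at a final density of 5 × 10^5 CFU/mL were exposed to a range of compound levels at 37 °C for 18 h in a CLSI-based microdilution format.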

[3] = test system: P. aeruginosa PA262-101856; assay: microbe, parasite or virus in culture; assay type: cell-based, Pseudomonas aeruginosa; settings: PA262-101856, 18 h
Summary of the method: as §2

A. baumannii AB027 = assay: microbe, parasite or virus in culture; assay type: cell-based, Acinetobacter baumannii; settings: AB027, 18 h
Summary of the method: as §2

A. baumannii AB92247 = assay: microbe, parasite or virus in culture; assay type: cell-based, Acinetobacter baumannii; settings: AB92247, 18 h
Summary of the method: as §2

E. cloacae 118564 [4] = assay: microbe, parasite or virus in culture; assay type: cell-based, Enterobacter cloacae; settings: 118564, 18 h
Method: as §1

[5] = test system: P. aeruginosa PA259-96196; assay type: cell-based, Pseudomonas aeruginosa; settings: for MICUTBLP: UTBLP alone
Summary of the method: (§3)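 Values derive from a two-agent checkerboard with an 18 h, 37 °C incubation. FICI cut-offs: ≤0.5 synergy, 0.5–4 additive, >4 antagonism.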

[6] = test system: P. aeruginosa PA262-101856; assay type: cell-based, Pseudomonas aeruginosa; settings: for MICUTBLP: UTBLP alone
Summary of the method: as §3

P. aeruginosa PAO1 [7] = assay type: cell-based, Pseudomonas aeruginosa; settings: for MICUTBLP: UTBLP alone
Summary of the method: as §3

A. baumannii ATCC 17978 = assay type: cell-based, Acinetobacter baumannii; settings: for MICUTBLP: UTBLP alone
Summary of the method: as §3

E. cloacae 118564 [8] = assay type: cell-based, Enterobacter cloacae; settings: for MICUTBLP: UTBLP alone
Method: (§4) The synergy of the UTBLPs with various antibiotics was assessed using checkerboard assay as previously described. Briefly, the combination of antibiotic and OMP at varying concentrations were incubated with bacterial inoculum (5 × 10^5 CFU/mL final concentration) at 37 °C for 18 h. Growth in the form of turbidity was confirmed using an EMax Plus microplate reader (Molecular Devices, Union City, CA, USA) at 590 nm. Fractional inhibitory concentration index (FICI) was used to evaluate the interaction between the antibiotic and the OMP. FICI is the sum of the FIC of the antibiotic and the FIC of the OMP. The FIC value is calculated by dividing the MIC of the agents in combination by the MIC of the agent alone. FICI ≤ 0.5 is synergistic, 0.5 < x ≤ 4 is additive, and >4 is antagonistic.

K. pneumoniae 113250 = assay type: cell-based, Klebsiella pneumoniae; settings: for MICUTBLP: UTBLP alone
Method: as §4

MRSA ATCC 33592 = assay type: cell-based, Staphylococcus aureus
Method: as §4

S. aureus ATCC 29213 = assay type: cell-based, Staphylococcus aureus
Method: as §4

MRSE 61589 = assay type: cell-based, Staphylococcus epidermidis
Method: as §4

MSSE 81388 = assay type: cell-based, Staphylococcus epidermidis
Method: as §4

[9] = UTBLP in combination with novobiocin
[10] = UTBLP in combination with rifampicin
[11] = novobiocin in combination with the UTBLP
[12] = rifampicin in combination with the UTBLP
[13] = UTBLP in combination with chloramphenicol
[14] = UTBLP in combination with niclosamide
[15] = chloramphenicol in combination with the UTBLP
[16] = niclosamide in combination with the UTBLP
[17] = UTBLP alone, plate with chloramphenicol

Compound: CCCCCCCC(=O)N[C@@H](CCCCNC)C(=O)NCCCN(CCCNC(=O)[C@H](CCCCNC)NC(=O)CCCCCCC)CC(=O)N[C@@H](CCCCNC)C(N)=O [UTBLP 2]
- MIC (P. aeruginosa PAO1 [1]): >128 µg/mL
- MIC (E. faecalis ATCC 29212): >128 µg/mL
- MIC (E. faecium ATCC 27270): >128 µg/mL
- MIC [2]: > 128 µg/mL
- MIC [3]: > 128 µg/mL
- MIC (A. baumannii AB027): > 128 µg/mL
- MIC (A. baumannii AB92247): > 128 µg/mL
- MIC (E. cloacae 118564 [4]): > 128 µg/mL
- Interpretation ([5]; UTBLP + novobiocin): Synergy (FICI ≤ 0.5 is synergistic)
- Interpretation ([5]; UTBLP + rifampicin): Synergy (FICI ≤ 0.5 is synergistic)
- MICUTBLP ([5]; plate with novobiocin): > 128 µg/mL
- MICUTBLP ([5]; plate with rifampicin): > 128 µg/mL
- MICUTBLP [MICcombo] [5, 9]: 16 µg/mL
- MICUTBLP [MICcombo] [5, 10]: 16 µg/mL
- MICantibiotic [MICcombo] [5, 11]: 512 µg/mL
- MICantibiotic [MICcombo] [5, 12]: 4 µg/mL
- Interpretation ([6]; UTBLP + novobiocin): Additive (0.5 < x ≤ 4 is additive)
- Interpretation ([6]; UTBLP + rifampicin): Additive (0.5 < x ≤ 4 is additive)
- MICUTBLP ([6]; plate with novobiocin): > 128 µg/mL
- MICUTBLP ([6]; plate with rifampicin): > 128 µg/mL
- MICUTBLP [MICcombo] [6, 9]: 16 µg/mL
- MICUTBLP [MICcombo] [6, 10]: 0.25 µg/mL
- MICantibiotic [MICcombo] [6, 11]: 512 µg/mL
- MICantibiotic [MICcombo] [6, 12]: 512 µg/mL
- Interpretation (P. aeruginosa PAO1 [7]; UTBLP + chloramphenicol): Synergy (FICI ≤ 0.5 is synergistic)
- Interpretation (P. aeruginosa PAO1 [7]; UTBLP + niclosamide): Additive (0.5 < x ≤ 4 is additive)
- Interpretation (P. aeruginosa PAO1 [7]; UTBLP + novobiocin): Synergy (FICI ≤ 0.5 is synergistic)
- Interpretation (P. aeruginosa PAO1 [7]; UTBLP + rifampicin): Additive (0.5 < x ≤ 4 is additive)
- MICUTBLP (P. aeruginosa PAO1 [7]; plate with chloramphenicol): > 128 µg/mL
- MICUTBLP (P. aeruginosa PAO1 [7]; plate with niclosamide): > 128 µg/mL
- MICUTBLP (P. aeruginosa PAO1 [7]; plate with novobiocin): > 128 µg/mL
- MICUTBLP (P. aeruginosa PAO1 [7]; plate with rifampicin): > 128 µg/mL
- MICUTBLP [MICcombo] (P. aeruginosa PAO1 [7]; [13]): 8 µg/mL
- MICUTBLP [MICcombo] (P. aeruginosa PAO1 [7]; [14]): 0.25 µg/mL
- MICUTBLP [MICcombo] (P. aeruginosa PAO1 [7]; [9]): 16 µg/mL
- MICUTBLP [MICcombo] (P. aeruginosa PAO1 [7]; [10]): 8 µg/mL
- MICantibiotic [MICcombo] (P. aeruginosa PAO1 [7]; [15]): 8 µg/mL
- MICantibiotic [MICcombo] (P. aeruginosa PAO1 [7]; [16]): 1024 µg/mL
- MICantibiotic [MICcombo] (P. aeruginosa PAO1 [7]; [11]): 256 µg/mL
- MICantibiotic [MICcombo] (P. aeruginosa PAO1 [7]; [12]): 8 µg/mL
- Interpretation (A. baumannii ATCC 17978; UTBLP + chloramphenicol): Additive (0.5 < x ≤ 4 is additive)
- Interpretation (A. baumannii ATCC 17978; UTBLP + niclosamide): Synergy (FICI ≤ 0.5 is synergistic)
- Interpretation (A. baumannii ATCC 17978; UTBLP + novobiocin): Synergy (FICI ≤ 0.5 is synergistic)
- Interpretation (A. baumannii ATCC 17978; UTBLP + rifampicin): Synergy (FICI ≤ 0.5 is synergistic)
- MICUTBLP (A. baumannii ATCC 17978; plate with chloramphenicol): > 128 µg/mL
- MICUTBLP (A. baumannii ATCC 17978; plate with niclosamide): > 128 µg/mL
- MICUTBLP (A. baumannii ATCC 17978; plate with novobiocin): > 128 µg/mL
- MICUTBLP (A. baumannii ATCC 17978; plate with rifampicin): > 128 µg/mL
- MICUTBLP [MICcombo] (A. baumannii ATCC 17978; [13]): 0.25 µg/mL
- MICUTBLP [MICcombo] (A. baumannii ATCC 17978; [14]): 8 µg/mL
- MICUTBLP [MICcombo] (A. baumannii ATCC 17978; [9]): 8 µg/mL
- MICUTBLP [MICcombo] (A. baumannii ATCC 17978; [10]): 16 µg/mL
- MICantibiotic [MICcombo] (A. baumannii ATCC 17978; [15]): 64 µg/mL
- MICantibiotic [MICcombo] (A. baumannii ATCC 17978; [16]): 2 µg/mL
- MICantibiotic [MICcombo] (A. baumannii ATCC 17978; [11]): 0.5 µg/mL
- MICantibiotic [MICcombo] (A. baumannii ATCC 17978; [12]): 0.031 µg/mL
- Interpretation (E. cloacae 118564 [8]; UTBLP + novobiocin): Synergy (FICI ≤ 0.5 is synergistic)
- Interpretation (E. cloacae 118564 [8]; UTBLP + rifampicin): Synergy (FICI ≤ 0.5 is synergistic)
- MICUTBLP (E. cloacae 118564 [8]; plate with novobiocin): > 128 µg/mL
- MICUTBLP (E. cloacae 118564 [8]; plate with rifampicin): > 128 µg/mL
- MICUTBLP [MICcombo] (E. cloacae 118564 [8]; [9]): 16 µg/mL
- MICUTBLP [MICcombo] (E. cloacae 118564 [8]; [10]): 16 µg/mL
- MICantibiotic [MICcombo] (E. cloacae 118564 [8]; [11]): 8 µg/mL
- Interpretation (K. pneumoniae 113250; UTBLP + novobiocin): Synergy (FICI ≤ 0.5 is synergistic)
- Interpretation (K. pneumoniae 113250; UTBLP + rifampicin): Synergy (FICI ≤ 0.5 is synergistic)
- MICUTBLP (K. pneumoniae 113250; plate with novobiocin): > 128 µg/mL
- MICUTBLP (K. pneumoniae 113250; plate with rifampicin): > 128 µg/mL
- MICUTBLP [MICcombo] (K. pneumoniae 113250; [9]): 16 µg/mL
- MICUTBLP [MICcombo] (K. pneumoniae 113250; [10]): 16 µg/mL
- MICantibiotic [MICcombo] (K. pneumoniae 113250; [11]): 4 µg/mL
- MICantibiotic [MICcombo] (K. pneumoniae 113250; [12]): 4 µg/mL
- Interpretation (MRSA ATCC 33592; UTBLP + chloramphenicol): Additive (0.5 < x ≤ 4 is additive)
- MICUTBLP (MRSA ATCC 33592; [17]): > 128 µg/mL
- MICUTBLP [MICcombo] (MRSA ATCC 33592; [13]): 0.25 µg/mL
- MICchloramphenicol [MICcombo] (MRSA ATCC 33592; [15]): 64 µg/mL
- MICUTBLP (S. aureus ATCC 29213; [17]): 128 µg/mL
- MICUTBLP [MICcombo] (S. aureus ATCC 29213; [13]): 0.25 µg/mL
- MICchloramphenicol [MICcombo] (S. aureus ATCC 29213; [15]): 16 µg/mL
- Interpretation (MRSE 61589; UTBLP + chloramphenicol): Additive (0.5 < x ≤ 4 is additive)
- MICUTBLP (MRSE 61589; [17]): 64 µg/mL
- MICUTBLP [MICcombo] (MRSE 61589; [13]): 0.25 µg/mL
- MICchloramphenicol [MICcombo] (MRSE 61589; [15]): 16 µg/mL
- Interpretation (MSSE 81388; UTBLP + chloramphenicol): Additive (0.5 < x ≤ 4 is additive)
- MICUTBLP (MSSE 81388; [17]): 64 µg/mL
- MICUTBLP [MICcombo] (MSSE 81388; [13]): 0.25 µg/mL
- MICchloramphenicol [MICcombo] (MSSE 81388; [15]): 8 µg/mL
